# How the values were obtained:
# Test in all cases: relative viability (nuclei count vs DMSO), 5 days (fraction); higher = more cells survive
# Olaparib + OSI-027 = compound: O=C(c1cc(Cc2n[nH]c(=O)c3ccccc23)ccc1F)N1CCN(C(=O)C2CC2)CC1 [Olaparib] + COc1cccc2cc(-c3nc([C@H]4CC[C@H](C(=O)O)CC4)n4ncnc(N)c34)[nH]c12 [OSI-027] (partner 0.5 µM)
# In short: (§1)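 Dosing by pin tool came one day after lung cancer cell lines were seeded in 1536-well plates, using either one drug or a fixed anchor-drug dose plus five library-drug doses (not always all listed) in √10 steps. After 5 days, nuclei were counted on 4× images. Relative viability is treated-well nuclei count divided by vehicle-well nuclei count, and values are medians of duplicate plates.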
# Carfilzomib + Lapatinib = compound: CC(C)C[C@H](NC(=O)[C@H](CCc1ccccc1)NC(=O)CN1CCOCC1)C(=O)N[C@@H](Cc1ccccc1)C(=O)N[C@@H](CC(C)C)C(=O)[C@@]1(C)CO1 [Carfilzomib] + CS(=O)(=O)CCNCc1ccc(-c2ccc3ncnc(Nc4ccc(OCc5cccc(F)c5)c(Cl)c4)c3c2)o1 [Lapatinib] (partner 2 µM)
# In short: as §1
# Olaparib + Pemetrexed = compound: O=C(c1cc(Cc2n[nH]c(=O)c3ccccc23)ccc1F)N1CCN(C(=O)C2CC2)CC1 [Olaparib] + Nc1nc2[nH]cc(CCc3ccc(C(=O)N[C@@H](CCC(=O)O)C(=O)O)cc3)c2c(=O)[nH]1 [Pemetrexed] (partner 0.2 µM)
# In short: as §1
# Olaparib + Pictilisib = compound: O=C(c1cc(Cc2n[nH]c(=O)c3ccccc23)ccc1F)N1CCN(C(=O)C2CC2)CC1 [Olaparib] + CS(=O)(=O)N1CCN(Cc2cc3nc(-c4cccc5[nH]ncc45)nc(N4CCOCC4)c3s2)CC1 [Pictilisib] (partner 1 µM)
# In short: as §1
Cell Line,relative viability (Olaparib + OSI-027; first compound 0.08 µM),relative viability (Olaparib + OSI-027; first compound 0.253 µM),relative viability (Olaparib + OSI-027; first compound 2.53 µM),relative viability (Olaparib + OSI-027; first compound 8 µM),relative viability (Carfilzomib + Lapatinib; first compound 0.001 µM),relative viability (Carfilzomib + Lapatinib; first compound 0.003162 µM),relative viability (Carfilzomib + Lapatinib; first compound 0.01 µM),relative viability (Carfilzomib + Lapatinib; first compound 0.03162 µM),relative viability (Carfilzomib + Lapatinib; first compound 0.1 µM),relative viability (Olaparib + Pemetrexed; first compound 0.08 µM),relative viability (Olaparib + Pemetrexed; first compound 0.253 µM),relative viability (Olaparib + Pemetrexed; first compound 2.53 µM),relative viability (Olaparib + Pemetrexed; first compound 8 µM),relative viability (Olaparib + Pictilisib; first compound 0.08 µM),relative viability (Olaparib + Pictilisib; first compound 0.253 µM),relative viability (Olaparib + Pictilisib; first compound 2.53 µM),relative viability (Olaparib + Pictilisib; first compound 8 µM)
LOU-NH91,0.764,0.638,0.764,0.729,0.767,0.783,0.607,0.309,0.288,0.389,0.366,0.381,0.343,0.559,0.524,0.515,0.503
NCI-H1755,0.803,0.64,0.647,0.638,1.05,1.12,1.02,0.922,0.279,0.447,0.68,0.419,0.396,0.553,0.383,0.405,0.338
NCI-H647,0.701,0.596,0.688,0.482,0.974,1.17,0.428,0.0287,0.0319,0.193,0.156,0.138,0.15,0.66,–,0.486,0.515
A549,–,–,–,–,0.885,1.05,0.931,0.359,0.0624,–,–,–,–,0.636,0.398,0.456,0.376
LCLC-103H,0.52,0.432,0.512,0.412,–,–,–,–,–,0.421,0.499,0.493,0.426,0.682,0.557,0.53,0.52
NCI-H1437,0.967,0.871,0.855,0.771,0.78,0.931,0.832,0.431,0.139,0.345,0.3,0.32,0.325,0.373,0.395,0.501,0.381
NCI-H2170,0.809,0.685,0.679,0.694,0.264,0.263,0.269,0.312,0.207,0.259,0.331,0.265,0.245,0.346,0.277,0.305,0.332
HCC-15,0.83,0.652,0.6,0.638,0.857,0.872,0.918,0.428,0.176,0.215,0.224,0.209,0.221,0.866,0.647,0.678,0.627
NCI-H1648,–,0.25,–,0.223,–,–,–,–,–,0.967,0.708,–,0.735,–,–,–,–
NCI-H661,0.7,0.61,0.708,0.621,0.548,0.836,0.533,0.507,0.191,0.954,0.871,0.901,0.795,0.431,0.399,0.439,0.386
NCI-H650,0.631,0.498,0.5,0.414,0.61,1.33,1.04,0.361,0.18,0.912,0.901,0.871,0.776,1.03,0.912,0.661,0.748
RERF-LC-KJ,0.66,0.592,0.598,0.614,0.845,0.836,0.894,0.841,0.378,0.527,0.477,0.481,0.449,0.491,0.522,0.648,0.526
SK-LU-1,0.345,0.331,0.382,0.24,0.931,0.944,0.729,0.127,0.191,1.12,0.865,0.866,0.635,0.608,0.569,0.602,0.353
NCI-H1792,0.759,0.652,0.712,0.669,0.794,0.896,0.939,0.985,0.697,0.86,0.547,0.605,0.398,0.265,0.241,0.265,0.217
NCI-H1666,0.845,0.791,0.717,0.758,0.611,0.755,0.747,0.407,0.193,0.945,0.772,0.856,0.822,0.637,0.33,0.488,0.52
SK-MES-1,0.674,0.553,0.577,0.459,0.451,0.469,0.443,0.43,0.267,0.982,0.91,0.853,0.768,0.399,0.297,0.355,0.328
NCI-H1915,0.612,0.572,0.533,0.374,0.937,1.02,0.973,0.586,0.0673,0.553,0.493,0.511,0.419,0.928,0.845,0.746,0.473
SW 1573,0.738,0.675,0.471,0.517,1.17,1.22,1.04,1.03,0.121,0.903,0.899,0.779,0.597,0.526,–,0.508,0.381
NCI-H2087,0.794,0.489,0.501,0.49,0.823,1.35,0.829,0.112,0.116,0.74,0.591,0.596,0.556,0.967,0.797,0.8,0.508

Cell Line,relative viability (Olaparib + OSI-027; first compound 0.08 µM),relative viability (Olaparib + OSI-027; first compound 0.253 µM),relative viability (Olaparib + OSI-027; first compound 2.53 µM),relative viability (Olaparib + OSI-027; first compound 8 µM),relative viability (Carfilzomib + Lapatinib; first compound 0.001 µM),relative viability (Carfilzomib + Lapatinib; first compound 0.003162 µM),relative viability (Carfilzomib + Lapatinib; first compound 0.01 µM),relative viability (Carfilzomib + Lapatinib; first compound 0.03162 µM),relative viability (Carfilzomib + Lapatinib; first compound 0.1 µM),relative viability (Olaparib + Pemetrexed; first compound 0.08 µM),relative viability (Olaparib + Pemetrexed; first compound 0.253 µM),relative viability (Olaparib + Pemetrexed; first compound 2.53 µM),relative viability (Olaparib + Pemetrexed; first compound 8 µM),relative viability (Olaparib + Pictilisib; first compound 0.08 µM),relative viability (Olaparib + Pictilisib; first compound 0.253 µM),relative viability (Olaparib + Pictilisib; first compound 2.53 µM),relative viability (Olaparib + Pictilisib; first compound 8 µM)
BEN,–,0.268,0.301,0.296,0.635,0.819,0.854,0.553,0.267,0.725,0.672,0.828,0.895,0.52,0.551,0.593,0.674
NCI-H1650,0.842,0.515,0.72,0.816,–,0.781,0.264,0.165,0.154,0.393,0.329,0.314,0.366,0.866,0.523,0.572,0.647
A-427,0.558,0.469,0.396,0.389,0.925,1.09,1.09,0.972,0.157,0.922,0.947,0.87,0.73,0.697,0.571,0.547,0.584
CAL-12T,1.05,0.568,0.602,0.627,–,0.691,0.759,0.618,0.207,1.48,1.04,1.16,0.963,0.772,0.413,0.452,0.439
EPLC-272H,0.334,0.286,0.31,0.299,0.804,1.47,1.06,0.298,0.0991,0.316,0.312,0.345,0.357,0.311,0.284,0.278,0.283
NCI-H23,0.8,0.58,0.465,0.367,1.01,1.09,0.723,0.171,0.142,0.756,0.614,0.654,0.473,0.684,0.365,0.397,0.292
Calu-6,–,–,–,–,1.08,1.12,1.13,0.135,0.116,–,–,–,–,1.12,0.825,0.858,0.75
NCI-H2342,0.565,0.54,0.55,0.564,–,–,–,–,–,0.806,0.751,0.753,0.761,–,–,–,–
NCI-H522,0.783,0.659,0.723,0.642,–,–,–,–,–,1.05,0.931,0.833,1.04,–,–,–,–
NCI-H441,0.683,0.724,0.642,0.581,–,–,–,–,–,0.28,0.279,0.287,0.239,0.676,0.387,0.552,0.456
NCI-H1623,0.511,0.457,0.474,0.42,–,–,–,–,–,–,–,–,–,–,–,–,–
SW 900,0.693,0.561,0.565,0.458,–,–,–,–,–,0.502,0.461,0.456,0.457,–,–,–,–
NCI-H1299,–,–,–,–,0.98,1.01,0.982,0.681,0.147,–,–,–,–,0.815,0.805,0.8,0.582
ABC-1,0.801,0.52,0.488,0.55,1.08,1.54,1.2,0.499,0.516,–,–,–,–,0.916,0.777,0.65,0.625
ChaGo-K-1,0.649,0.506,0.533,0.464,–,–,–,–,–,0.266,0.258,0.261,0.256,1.27,0.674,0.75,0.661
IA-LM,–,–,–,–,0.846,0.667,0.434,0.0463,0.081,–,–,–,–,0.392,0.372,0.321,0.317
NCI-H727,0.91,0.619,0.546,0.471,0.72,0.855,0.61,0.398,0.12,–,–,–,–,0.416,0.446,0.352,0.284
EBC-1,–,–,–,–,0.228,0.203,0.208,0.169,0.144,–,–,–,–,0.392,0.345,0.368,0.304
NCI-H1703,–,–,–,–,1.02,1.19,0.207,0.149,0.173,–,–,–,–,0.299,0.346,0.275,0.27

# From the supplement of paper PMC10307832
